Reference: US20230416316A1, “ADP-RIBOSE BINDING PEPTIDES WITH ANTI-CANCER ACTIVITY AND USE THEREOF” (PearlsInMires Co., Ltd., priority 2021, published 2023)
Entries after “also recorded” stand apart in the source; their conditions may differ. Ends that are not written are not given here.

What was measured:
Assay type in all cases: cell-based
HDPC = test: Cytotoxicity in normal cells HDPC; conditions: HDPC human dermal papilla cell, 25, 50 and 100 μM, 24, 48 or 72 hours; listed as SEQ ID NO: 7
Protocol: (§1) As normal cells for testing, CCD-18Co, which is a human colon fibroblast, and HDPC, which is a human dermal papilla cell, were used. Further, the peptide of SEQ ID NO: 7 was used as a representative peptide of Examples of the present disclosure.
(§2) First, 5×10^3 cells of each normal cell were inoculated into a 96-well plate and cultured in DMEM medium for 24 hours under conditions of 37° C. and 5% CO2. The respective wells were divided into a group untreated with the peptide and groups treated with the peptide of SEQ ID NO: 7 (25, 50, and 100 μM, respectively), and tested.

CCD-18Co = test: Cytotoxicity in normal cells CCD-18Co; conditions: CCD-18Co human colon fibroblast, 25, 50 and 100 μM, 24, 48 or 72 hours; listed as SEQ ID NO: 7
Protocol: as §1, §2

MDA-MB-231 cells = test: Viability of MDA-MB-231 cells, docetaxel alone or combined with peptides; conditions: 50 μM docetaxel alone, 24 hours
Protocol: (§3) After culturing 3×10^3 MDA-MB-231 cells in a 96-well plate for 24 hours under conditions of 37° C. and 5% CO2, the cells were treated with 50 μM docetaxel alone or in combination with the peptides of Examples 15 to 28 at a concentration of 0.2, 1 or 8 μM. Then, the cells were cultured for 24 hours under conditions of 37° C. and 5% CO2, 10 μl of 3-(4,5-dimethylthiazol-2-yl)-2,5-diphenyltetrazolium bromide reagent was added to each well, followed by reaction for 1 hour. After the reaction was completed, the reagent was removed, 200 μl of dimethyl sulfoxide was added to each well, and the absorbance was measured to confirm cell viability.

H1975 cells = test: Viability of H1975 cells, osimertinib alone or combined with peptides; conditions: Homo sapiens, NCI-H1975, 1 nM osimertinib alone, 24 hours, read-out: viable cancer cells
Protocol: as §3, with “culturing 3×10^3 H1975 cells in” for “culturing 3×10^3 MDA-MB-231 cells in”, “treated with 1 nM osimertinib alone or” for “treated with 50 μM docetaxel alone or”, “of Examples 1 to 14” for “of Examples 15 to 28”, “1 to 14 at a” for “15 to 28 at a”, “5% CO2, and 10 μl” for “5% CO2, 10 μl”

Aspc-1 cells = test: Viability of Aspc-1 cells, gemcitabine alone or combined with peptides; conditions: 1 nM gemcitabine alone, 24 hours
Protocol: as §3, with “culturing 3×10^3 Aspc-1 cells in” for “culturing 3×10^3 MDA-MB-231 cells in”, “treated with 1 nM gemcitabine alone or” for “treated with 50 μM docetaxel alone or”, “5% CO2, and 10 μl” for “5% CO2, 10 μl”

FSYKIDFAEMKQMNLTTGKQRLIKR [Example 7]
cytotoxicity to normal cells versus untreated control (HDPC): no significant difference; also recorded: no toxicity was shown
cytotoxicity to normal cells versus untreated control (CCD-18Co): no significant difference; also recorded: no toxicity was shown

CC(=O)O[C@@]12CO[C@@H]1C[C@H](O)[C@@]1(C)C(=O)[C@H](O)C3=C(C)[C@@H](OC(=O)[C@H](O)[C@@H](NC(=O)OC(C)(C)C)c4ccccc4)C[C@@](O)([C@@H](OC(=O)c4ccccc4)[C@H]21)C3(C)C [docetaxel]
cancer cells survived (MDA-MB-231 cells): about 52%

C=CC(=O)Nc1cc(Nc2nccc(-c3cn(C)c4ccccc34)n2)c(OC)cc1N(C)CCN(C)C [osimertinib]
viability at 0.001 µM (H1975 cells): ~49%

Nc1ccn([C@@H]2O[C@H](CO)[C@@H](O)C2(F)F)c(=O)n1 [gemcitabine]
cancer cells survived (Aspc-1 cells): about 50%
